Experimental data from patent US10758609B2, “Cross-reactive T-cell epitopes of HIV, SIV, and FIV for vaccines in humans and cats” (priority 2015, dated 2020).

How the values were obtained:
[1] = system: PBMC from FIV-vaccinated cats; assay: Feline IL2 ELISpot of PBMC from vaccinated cats; type: cell-based, cat
Procedure, shortened: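 PBMC from cats given a dual-subtype FIV vaccine were stimulated with FIV MAPs, peptides or overlapping peptide pools, and IFNγ or IL2 spots were counted. Values are duplicate means after subtraction of media controls (or of control-cat averages), with ≥50 SFU per 1×10^6 PBMC as the threshold.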

[2] = system: feline CD3^+CD4^+ T cells; assay: CFSE-based feline CD3+CD4+ T-cell proliferation; design: species or system cat; details: FIV-vaccinated cats; for CD4, frequency of responders: FIV epitope peptide; for CDC4^+ T (T-cell proliferation), frequency of responders: FIV peptides
Procedure, shortened: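 CFSE-labelled PBMCs (2.5×10^5) from cats stimulated 5 days at 37 °C with peptides or overlapping peptide pools at 4 μg/mL each. Proliferating CD3+CD4+ and CD3+CD8+ cells gated by flow. Media/control values subtracted; positive threshold ≥1 CFSE^low (≥0.5 CFSE^low in vaccine trial).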

| Sequence | IL2, frequency of responders ([1]; FIV epitope peptide) | IL2, frequency of responders ([1]; FIV peptides) | CD4, frequency of responders [2] | CDC4^+ T (T-cell proliferation), frequency of responders [2] |
| --- | --- | --- | --- | --- |
| AGLRQSLEQYQVVKQ [FSU4] | — (0%-1.4% (—)) | — (0%-1.4%(—)) | +++ (41%-54% (+++)) | +++ (40.1%-54% (+++)) |
| KFLYTAFAMQELR [FTM4-3] | ++++ (>54% (++++)) | ++++ (>54% (++++)) | ++ (26%-40% (++)) | ++ (25.1%-40% (++)) |
| KKKSGKWRMLIDFRV [FRT3-3] | ++ (26%-40% (++)) | ++ (25.1%-40% (++)) | ++ (26%-40% (++)) | ++ (25.1%-40% (++)) |
| LLLILCLPTLVDCIRN [FTM8(20)] | — (0%-1.4% (—)) | — (0%-1.4%(—)) | ++ (26%-40% (++)) | ++ (25.1%-40% (++)) |
| PTDMATLIMAAPGCA [Fp4-3] | + (12.5%-25% (+)) | + (12.5%-25% (+)) | ++++ (>54% (++++)) | ++++ (>54% (++++)) |
| WRMLIDFRVLNKL [FRT3-4] | ++ (26%-40% (++)) | ++ (25.1%-40% (++)) | + (12.5%-25% (+)) | + (12.5%-25% (+)) |
